Patent US8012950B2, “Method to diagnose and treat degenerative joint disease” (Wisconsin Alumni Research Foundation, priority 2003, dated 2011)

What was measured:
[1] = biological target: T1, recombinant human cathepsin K (Homo sapiens, UniProt P43235); test: Cathepsin K inhibition assay; type: biochemical
T1 sequence (P43235 115-329): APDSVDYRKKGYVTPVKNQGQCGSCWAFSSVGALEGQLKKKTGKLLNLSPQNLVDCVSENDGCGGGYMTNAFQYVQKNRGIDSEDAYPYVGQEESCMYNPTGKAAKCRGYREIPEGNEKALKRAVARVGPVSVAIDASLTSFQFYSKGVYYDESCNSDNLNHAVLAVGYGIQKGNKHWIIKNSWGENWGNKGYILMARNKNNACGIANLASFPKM
Protocol: Cathepsin K Inhibition Assay: The cathepsin K inhibition assay was modified from a previously described protocol (Votta et al., 1997). Doxycycline, tetracycline and minocycline were dissolved in 0.1 M Tris/0.15M NaCl buffer, pH 7.4. COL-3 was dissolved in 100% ethanol. NPI-3469 was dissolved in dimethylsulphoxide. Ten microliters of doxycycline, tetracycline, minocycline, COL-3, and NPI-3469 were dissolved in buffer and an equal volume of 0.125 μM rh-human cathepsin K standard dissolved in 100 mM sodium acetate buffer, pH 5.5 were mixed in a 96-well microplate and incubated at approximately 25° C. (room temperature) for 15 minutes. Concentrations of the candidate inhibiting compound in the initial mixture were prepared at 10^-7 to 10^-3M. Then 180 μl of an MCA substrate buffer containing 100 mM sodium acetate buffer pH 5.5, 2.5 mM dithiothreitol, 2.5 mM EDTA, and 5 μ[…] substrate (Peptides International, Louisville, KY) was added to the mixture. The microplate was incubated for 60 minutes at approximately 25° C. The fluorescence of each well was then determined using a fluorescent microplate reader set at 360 nm excitation/460 nm emission. Data Analysis: The residual collagenolytic enzyme activity as a percentage of the control was calculated for each concentration of each inhibiting compound. All dilutions of each inhibiting compound were assayed in duplicate and a mean value was calculated for each well.

[2] = biological target: T2, recombinant human MMP-13 (collagenase 3) (Homo sapiens, UniProt P45452); test: Matrix metalloproteinase-13 inhibition assay; type: biochemical; details: at 1 mM concentrations
T2 construct: purchased Chondrex, Inc., Redmond, Wash; Cat. No. 3003
Protocol: Matrix Metalloproteinase-13 Inhibition Assay: The MMP-13 (collagenase 3) inhibition assay used a commercially available kit (Chondrex, Inc., Redmond, Wash., Cat. No. 3003) The recombinant human MMP-13 (collagenase 3) was activated by adding 5 μl of a 10 μg/ml solution of recombinant human MMP-13, 90 μl of sample dilution and reaction buffer (Solution B), and 5 μl of p-aminophenylmercuric acetate to each well of a microplate. The microplate was then incubated for 60 minutes at 35° C. Ten microliters of proteinase inhibitor was then added to each well to neutralize non-collagenolytic proteases in the sample solutions. Twenty five microliters of doxycycline, tetracycline, minocycline, COL-3, NPI-3469 (dissolved in buffer as previously described) and 25 μl of solution B were added to each well. Concentrations of the candidate inhibiting compounds in the initial mixture were prepared at 10^−7 to 10^−3 M using solution B. After the microplate was incubated at approximately 25° C. for 30 minutes, 10 μl of stop solution was added to each well and the fluorescence of each well was then determined using a fluorescent microplate reader set at 360 nm excitation/460nm emission. Data Analysis: The residual collagenolytic enzyme activity as a percentage of the control was calculated for each concentration of each inhibiting compound. All dilutions of each inhibiting compound were assayed in duplicate and a mean value was calculated for each well.

[3] = Pharmacokinetic study of oral NPI 3469 in the dog; type: in vivo; details: 4 beagles, single oral dose 1 mg/kg
Protocol: Pharmacokinetics of oral NPI 3469 (NAEJA Pharmaceuticals, Edmonton, Alberta, Canada) in the dog. We have conducted a pharmokinetic study in 4 beagles using a single oral dose of NPI 3469 given at 1 mg/kg and pharmacokinetic parameters have been determined.

SMILES | inhibition of cathepsin K ([1]; at 1 μm) [%] | inhibition of cathepsin K ([1]; at 10 μm) [%] | inhibition of matrix metalloproteinase-13 (in words) [2] | adverse effects during the treatment period [3] | inhibition of matrix metalloproteinase-13 [2] [%]
CC(C)C[C@H](NC(=O)OCc1ccccc1)C(=O)NC1=CNC2(CCCC2)NC1=O [NPI-3469, 5-(carbobenzoxy-L-leucyl)amino-2,2-tetramethylene-2,3-dihydro-1H-pyrimidin-4-one] | 47 | 75 | did not inhibit | No adverse effects | 
NC(=O)C1=C(O)CC2CC3Cc4cccc(O)c4C(=O)C3=C(O)C2(O)C1=O (stereo not shown) [COL-3, 4-dedimethylaminosancycline] | 25 | 56 |  |  | 57
CN(C)[C@@H]1C(O)=C(C(N)=O)C(=O)[C@@]2(O)C(O)=C3C(=O)c4c(O)cccc4[C@@](C)(O)[C@H]3C[C@@H]12 [tetracycline] |  |  |  |  | 49
C[C@H]1c2cccc(O)c2C(=O)C2=C(O)[C@]3(O)C(=O)C(C(N)=O)=C(O)[C@@H](N(C)C)[C@@H]3[C@@H](O)[C@@H]21 [doxycycline] |  |  | did not inhibit |  | 
CN(C)c1ccc(O)c2c1C[C@H]1C[C@H]3[C@H](N(C)C)C(O)=C(C(N)=O)C(=O)[C@@]3(O)C(O)=C1C2=O [minocycline] |  |  |  |  | 85
